Activity calls are given as the source filed them. The calls are words filed in the database; no cut-off is given here.
What was measured:
Staphylococcus aureus [1] = assay: (§1) Synergistic antibacterial activity against community acquired methicillin resistant Staphylococcus aureus USA300 assessed as potentiation of cefuroxime-induced antibacterial activity by measuring cefuroxime MIC incubated for 18 hrs by checkerboard broth microdilution assay; format: functional
Staphylococcus aureus [2] = assay: Synergistic antibacterial activity against community acquired methicillin resistant Staphylococcus aureus USA300 assessed as fractional inhibitory concentration index in presence of cefuroxime incubated for 18 hrs by checkerboard broth microdilution assay; format: functional
Staphylococcus aureus [3] = assay: Synergistic antibacterial activity against community acquired methicillin resistant Staphylococcus aureus USA300 incubated for 18 hrs by checkerboard broth microdilution assay; format: functional
Staphylococcus aureus [4] = assay: Synergistic antibacterial activity against community acquired methicillin resistant Staphylococcus aureus USA300 assessed as fractional inhibitory concentration incubated for 18 hrs by checkerboard broth microdilution assay; format: functional
Staphylococcus aureus [5] = assay: as §1, with “fractional inhibitory concentration” for “MIC”; format: functional
Staphylococcus aureus [6] = assay: Inhibition of Staphylococcus aureus UPPS using FPP and IPP as substrates preincubated for 20 mins followed by substrate addition

Row | Compound | MIC (Staphylococcus aureus [1]) | fractional inhibitory concentration index (FICI) (Staphylococcus aureus [2]) | MIC (Staphylococcus aureus [3]) | FIC (Staphylococcus aureus [4]) | FIC (Staphylococcus aureus [5]) | inhibition (Staphylococcus aureus [6])
1 | CCc1cc(N2CCCCCC2)n2ncc(-c3ccc(F)cc3)c2n1 | > 32 µg/mL | 0.0468 | > 128 µg/mL | 0.0312 | 0.0156 | 
2 | Cc1cc(N2CCCCCCC2)n2ncc(-c3ccc(F)cc3)c2n1 | > 32 µg/mL | 0.0625 | > 128 µg/mL | 0.0312 | 0.0312 | 
3 | CCc1cc(N2CCCCCCC2)n2ncc(-c3ccc(F)cc3)c2n1 | > 32 µg/mL | 0.1875 | > 128 µg/mL | 0.125 | 0.0625 | 
4 | Cc1cc(N2CCCCCC2)n2ncc(-c3ccc(F)cc3)c2n1 | > 32 µg/mL | 0.0781 | > 128 µg/mL | 0.0625 | 0.0156 | Active
5 | CCN(CC)CCOc1ccc(/C(=C(/Cl)c2ccccc2)c2ccccc2)cc1 [ENCLOMIPHENE] | 256 µg/mL | 0.313 | 16 µg/mL | 0.25 | 0.063 | 
6 | CCCc1cc(N2CCCCCC2)n2ncc(-c3ccc(F)cc3)c2n1 | > 32 µg/mL | 0.0625 | > 128 µg/mL | 0.0312 | 0.0312 | 
7 | Cc1cc(N2CCOCC2)n2ncc(-c3ccc(F)cc3)c2n1 | > 32 µg/mL | 0.156 | > 128 µg/mL | 0.03125 | 0.125 | 
8 | Cc1cc(N2CCCCCC2)n2ncc(-c3cccc(F)c3)c2n1 | > 32 µg/mL | 0.0937 | > 128 µg/mL | 0.0625 | 0.0312 | 

Reference: ChEMBL document CHEMBL5036338, “Structural Insights into the Inhibition of Undecaprenyl Pyrophosphate Synthase from Gram-Positive Bacteria” (2021)
